# Reference: ChEMBL document CHEMBL3991601, “The target landscape of clinical kinase drugs” (Science, 2017)
# Activity calls are given as the source filed them. Rule as the data show it, for most assays here: actives have a measured Kd and inactives only a lower limit.
# Molecular target: Deoxycytidine kinase (Homo sapiens, UniProt P27707)
# Also: in the data inactive means no Kd found up to 30 µM.
# Deoxycytidine kinase, sequence (P27707 whole entry): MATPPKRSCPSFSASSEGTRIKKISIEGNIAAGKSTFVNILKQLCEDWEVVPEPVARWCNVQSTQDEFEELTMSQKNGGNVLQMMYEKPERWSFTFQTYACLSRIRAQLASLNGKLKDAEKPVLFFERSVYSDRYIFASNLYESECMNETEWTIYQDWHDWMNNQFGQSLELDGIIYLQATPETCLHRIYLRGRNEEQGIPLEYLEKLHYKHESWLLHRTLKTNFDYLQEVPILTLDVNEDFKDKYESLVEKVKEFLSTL
row,Compound,Kd
1,CNC(=O)CN1CCC(Oc2cc3c(Nc4cccc(Cl)c4F)ncnc3cc2OC)CC1 [SAPITINIB],> 30 µM (inactive)
2,CN1CCC(CNc2ccc3ncc(-c4cccc(OC(F)(F)F)c4)n3n2)CC1 [SGI-1776],> 30 µM (inactive)

# Molecular target: Mitogen-activated protein kinase kinase kinase 1 (Homo sapiens, UniProt Q13233)
# Sequence (Q13233 whole entry): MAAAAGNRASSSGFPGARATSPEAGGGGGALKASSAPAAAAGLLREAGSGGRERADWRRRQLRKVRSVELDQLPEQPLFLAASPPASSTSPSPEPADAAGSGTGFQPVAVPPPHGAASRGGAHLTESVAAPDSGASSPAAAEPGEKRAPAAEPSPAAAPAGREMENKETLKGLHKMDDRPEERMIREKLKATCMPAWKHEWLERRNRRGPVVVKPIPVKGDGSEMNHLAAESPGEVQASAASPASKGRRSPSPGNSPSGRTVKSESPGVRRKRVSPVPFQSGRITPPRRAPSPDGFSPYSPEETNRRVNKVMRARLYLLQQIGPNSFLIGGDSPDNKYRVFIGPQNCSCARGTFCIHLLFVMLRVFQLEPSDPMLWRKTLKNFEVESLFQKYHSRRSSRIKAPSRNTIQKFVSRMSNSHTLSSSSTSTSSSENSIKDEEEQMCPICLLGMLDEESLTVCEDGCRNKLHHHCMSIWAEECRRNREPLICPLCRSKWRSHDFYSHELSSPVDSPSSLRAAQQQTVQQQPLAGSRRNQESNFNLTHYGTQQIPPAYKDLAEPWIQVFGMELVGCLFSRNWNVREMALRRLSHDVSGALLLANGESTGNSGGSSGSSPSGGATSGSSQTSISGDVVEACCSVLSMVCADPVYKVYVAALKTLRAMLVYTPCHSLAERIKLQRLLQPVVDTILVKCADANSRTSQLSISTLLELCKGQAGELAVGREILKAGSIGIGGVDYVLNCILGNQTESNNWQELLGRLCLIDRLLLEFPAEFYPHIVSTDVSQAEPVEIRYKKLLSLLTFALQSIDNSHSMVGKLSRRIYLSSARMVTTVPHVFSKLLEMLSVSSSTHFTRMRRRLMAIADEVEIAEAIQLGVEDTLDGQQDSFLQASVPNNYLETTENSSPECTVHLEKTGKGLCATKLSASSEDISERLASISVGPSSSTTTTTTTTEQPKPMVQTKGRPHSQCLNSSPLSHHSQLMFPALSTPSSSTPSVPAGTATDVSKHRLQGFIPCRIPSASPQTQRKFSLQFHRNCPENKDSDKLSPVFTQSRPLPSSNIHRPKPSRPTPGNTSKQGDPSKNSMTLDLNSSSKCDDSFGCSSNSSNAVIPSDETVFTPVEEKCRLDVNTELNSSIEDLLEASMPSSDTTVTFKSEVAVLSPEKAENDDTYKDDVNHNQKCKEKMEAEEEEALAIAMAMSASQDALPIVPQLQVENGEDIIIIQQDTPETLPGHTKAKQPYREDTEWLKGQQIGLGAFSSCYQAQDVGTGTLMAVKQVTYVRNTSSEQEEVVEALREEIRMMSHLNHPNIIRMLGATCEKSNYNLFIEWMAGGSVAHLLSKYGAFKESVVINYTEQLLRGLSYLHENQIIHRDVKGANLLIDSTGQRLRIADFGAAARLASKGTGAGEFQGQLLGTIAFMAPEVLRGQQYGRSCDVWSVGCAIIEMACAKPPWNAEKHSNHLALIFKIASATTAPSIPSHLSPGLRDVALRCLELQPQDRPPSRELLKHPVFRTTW
row,Compound,Kd
1,CNC(=O)CN1CCC(Oc2cc3c(Nc4cccc(Cl)c4F)ncnc3cc2OC)CC1 [SAPITINIB],> 30 µM (inactive)
2,CN1CCC(CNc2ccc3ncc(-c4cccc(OC(F)(F)F)c4)n3n2)CC1 [SGI-1776],> 30 µM (inactive)

# Molecular target: Ribosomal protein S6 kinase alpha-4 (Homo sapiens, UniProt O75676)
# Sequence (O75676 whole entry): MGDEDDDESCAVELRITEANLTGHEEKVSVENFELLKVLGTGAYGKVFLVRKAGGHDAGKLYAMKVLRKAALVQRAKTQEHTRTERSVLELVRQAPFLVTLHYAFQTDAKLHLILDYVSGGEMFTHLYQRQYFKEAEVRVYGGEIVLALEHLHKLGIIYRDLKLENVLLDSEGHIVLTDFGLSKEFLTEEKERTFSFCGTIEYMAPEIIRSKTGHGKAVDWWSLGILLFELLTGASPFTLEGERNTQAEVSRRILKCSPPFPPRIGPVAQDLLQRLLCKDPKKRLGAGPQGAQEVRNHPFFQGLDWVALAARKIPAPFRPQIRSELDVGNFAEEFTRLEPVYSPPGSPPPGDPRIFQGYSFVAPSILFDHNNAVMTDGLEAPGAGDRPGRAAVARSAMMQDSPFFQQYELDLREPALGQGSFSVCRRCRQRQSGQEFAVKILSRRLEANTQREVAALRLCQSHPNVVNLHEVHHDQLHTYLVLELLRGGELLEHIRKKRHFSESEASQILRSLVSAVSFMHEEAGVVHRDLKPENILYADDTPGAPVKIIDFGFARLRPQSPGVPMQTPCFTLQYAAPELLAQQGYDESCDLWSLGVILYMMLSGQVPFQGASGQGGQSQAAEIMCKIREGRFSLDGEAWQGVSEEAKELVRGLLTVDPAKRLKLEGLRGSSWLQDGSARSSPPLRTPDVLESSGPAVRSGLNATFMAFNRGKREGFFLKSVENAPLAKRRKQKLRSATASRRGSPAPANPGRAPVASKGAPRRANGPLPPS
row,Compound,Kd
1,CNC(=O)CN1CCC(Oc2cc3c(Nc4cccc(Cl)c4F)ncnc3cc2OC)CC1 [SAPITINIB],> 30 µM (inactive)
2,CN1CCC(CNc2ccc3ncc(-c4cccc(OC(F)(F)F)c4)n3n2)CC1 [SGI-1776],> 30 µM (inactive)

# Molecular target: Non-receptor tyrosine-protein kinase TYK2 (Homo sapiens, UniProt P29597)
row,Compound,Kd
1,CNC(=O)CN1CCC(Oc2cc3c(Nc4cccc(Cl)c4F)ncnc3cc2OC)CC1 [SAPITINIB],> 30 µM (inactive)
2,CN1CCC(CNc2ccc3ncc(-c4cccc(OC(F)(F)F)c4)n3n2)CC1 [SGI-1776],> 30 µM (inactive)

# Molecular target: Atypical kinase COQ8A, mitochondrial (Homo sapiens, UniProt Q8NI60)
# Sequence (Q8NI60 whole entry): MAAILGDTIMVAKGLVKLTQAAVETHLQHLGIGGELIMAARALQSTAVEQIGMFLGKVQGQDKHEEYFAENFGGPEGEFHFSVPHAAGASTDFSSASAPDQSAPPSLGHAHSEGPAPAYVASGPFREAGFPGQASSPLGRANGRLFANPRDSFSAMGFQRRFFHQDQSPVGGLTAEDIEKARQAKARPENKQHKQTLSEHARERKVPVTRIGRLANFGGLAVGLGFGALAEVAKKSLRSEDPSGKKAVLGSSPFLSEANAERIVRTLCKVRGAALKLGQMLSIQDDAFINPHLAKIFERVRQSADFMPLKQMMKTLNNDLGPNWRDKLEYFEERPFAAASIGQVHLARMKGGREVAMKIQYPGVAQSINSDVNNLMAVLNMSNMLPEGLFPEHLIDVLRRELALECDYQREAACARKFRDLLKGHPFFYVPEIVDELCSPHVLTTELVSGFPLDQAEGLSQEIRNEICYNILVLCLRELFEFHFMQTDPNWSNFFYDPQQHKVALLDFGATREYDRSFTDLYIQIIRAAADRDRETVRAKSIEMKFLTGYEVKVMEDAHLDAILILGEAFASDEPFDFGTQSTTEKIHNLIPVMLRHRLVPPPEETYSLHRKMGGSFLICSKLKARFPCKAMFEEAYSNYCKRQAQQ
row,Compound,Kd
1,CNC(=O)CN1CCC(Oc2cc3c(Nc4cccc(Cl)c4F)ncnc3cc2OC)CC1 [SAPITINIB],> 30 µM (inactive)
2,CN1CCC(CNc2ccc3ncc(-c4cccc(OC(F)(F)F)c4)n3n2)CC1 [SGI-1776],> 30 µM (inactive)

# Molecular target: T1, Mitogen-activated protein kinase kinase kinase 2 (Homo sapiens, UniProt Q9Y2U5)
# T1 sequence (Q9Y2U5 whole entry): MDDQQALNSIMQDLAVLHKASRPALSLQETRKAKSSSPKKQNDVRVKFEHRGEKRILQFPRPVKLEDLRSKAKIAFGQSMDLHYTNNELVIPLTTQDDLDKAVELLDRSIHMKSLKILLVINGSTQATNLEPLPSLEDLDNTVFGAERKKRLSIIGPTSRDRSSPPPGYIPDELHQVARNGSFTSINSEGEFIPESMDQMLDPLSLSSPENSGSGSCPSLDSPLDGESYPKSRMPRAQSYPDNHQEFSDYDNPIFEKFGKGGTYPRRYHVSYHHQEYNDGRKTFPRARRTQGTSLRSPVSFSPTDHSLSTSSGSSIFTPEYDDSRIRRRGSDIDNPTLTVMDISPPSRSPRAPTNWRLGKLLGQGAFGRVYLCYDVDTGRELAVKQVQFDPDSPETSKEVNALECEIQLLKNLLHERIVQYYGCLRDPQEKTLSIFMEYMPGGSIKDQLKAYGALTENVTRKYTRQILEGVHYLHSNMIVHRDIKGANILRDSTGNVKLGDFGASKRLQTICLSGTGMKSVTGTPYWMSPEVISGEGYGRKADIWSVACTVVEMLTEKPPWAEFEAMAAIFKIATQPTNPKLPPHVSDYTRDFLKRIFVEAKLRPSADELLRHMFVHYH
row,Compound,Kd
1,CNC(=O)CN1CCC(Oc2cc3c(Nc4cccc(Cl)c4F)ncnc3cc2OC)CC1 [SAPITINIB],> 30 µM (inactive)
2,CN1CCC(CNc2ccc3ncc(-c4cccc(OC(F)(F)F)c4)n3n2)CC1 [SGI-1776],> 30 µM (inactive)

# Molecular target: MAP kinase-activated protein kinase 2 (Homo sapiens, UniProt P49137)
row,Compound,Kd
1,CNC(=O)CN1CCC(Oc2cc3c(Nc4cccc(Cl)c4F)ncnc3cc2OC)CC1 [SAPITINIB],> 30 µM (inactive)
2,CN1CCC(CNc2ccc3ncc(-c4cccc(OC(F)(F)F)c4)n3n2)CC1 [SGI-1776],> 30 µM (inactive)

# Molecular target: T2, ATP-dependent 6-phosphofructokinase, platelet type (Homo sapiens, UniProt Q01813)
# T2 sequence (Q01813 whole entry): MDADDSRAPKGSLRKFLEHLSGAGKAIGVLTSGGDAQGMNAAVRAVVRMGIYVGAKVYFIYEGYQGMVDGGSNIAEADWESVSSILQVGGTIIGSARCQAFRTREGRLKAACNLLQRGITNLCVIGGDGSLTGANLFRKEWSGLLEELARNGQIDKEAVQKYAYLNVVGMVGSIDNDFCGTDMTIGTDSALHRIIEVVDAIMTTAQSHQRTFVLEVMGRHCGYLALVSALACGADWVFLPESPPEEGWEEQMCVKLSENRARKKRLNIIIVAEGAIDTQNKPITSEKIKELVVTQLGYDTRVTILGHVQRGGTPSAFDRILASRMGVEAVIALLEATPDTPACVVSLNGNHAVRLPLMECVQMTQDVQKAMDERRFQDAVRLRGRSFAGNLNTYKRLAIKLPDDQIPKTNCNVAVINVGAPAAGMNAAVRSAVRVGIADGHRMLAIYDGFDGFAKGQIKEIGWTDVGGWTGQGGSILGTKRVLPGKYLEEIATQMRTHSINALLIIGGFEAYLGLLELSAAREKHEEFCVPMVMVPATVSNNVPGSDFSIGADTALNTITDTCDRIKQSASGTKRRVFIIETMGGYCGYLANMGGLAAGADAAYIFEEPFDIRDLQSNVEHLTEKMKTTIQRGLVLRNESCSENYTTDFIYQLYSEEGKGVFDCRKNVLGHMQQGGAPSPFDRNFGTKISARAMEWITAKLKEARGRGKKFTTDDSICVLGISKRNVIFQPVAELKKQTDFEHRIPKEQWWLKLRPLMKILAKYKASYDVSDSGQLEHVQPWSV
row,Compound,Kd
1,CNC(=O)CN1CCC(Oc2cc3c(Nc4cccc(Cl)c4F)ncnc3cc2OC)CC1 [SAPITINIB],> 30 µM (inactive)
2,CN1CCC(CNc2ccc3ncc(-c4cccc(OC(F)(F)F)c4)n3n2)CC1 [SGI-1776],> 30 µM (inactive)

# Molecular target: Tyrosine-protein kinase Lyn (Homo sapiens, UniProt P07948)
row,Compound,Kd
1,CNC(=O)CN1CCC(Oc2cc3c(Nc4cccc(Cl)c4F)ncnc3cc2OC)CC1 [SAPITINIB],2.48 µM (active)
2,CN1CCC(CNc2ccc3ncc(-c4cccc(OC(F)(F)F)c4)n3n2)CC1 [SGI-1776],> 30 µM (inactive)

# Molecular target: STE20-like serine/threonine-protein kinase (Homo sapiens, UniProt Q9H2G2)
# Sequence (Q9H2G2 whole entry): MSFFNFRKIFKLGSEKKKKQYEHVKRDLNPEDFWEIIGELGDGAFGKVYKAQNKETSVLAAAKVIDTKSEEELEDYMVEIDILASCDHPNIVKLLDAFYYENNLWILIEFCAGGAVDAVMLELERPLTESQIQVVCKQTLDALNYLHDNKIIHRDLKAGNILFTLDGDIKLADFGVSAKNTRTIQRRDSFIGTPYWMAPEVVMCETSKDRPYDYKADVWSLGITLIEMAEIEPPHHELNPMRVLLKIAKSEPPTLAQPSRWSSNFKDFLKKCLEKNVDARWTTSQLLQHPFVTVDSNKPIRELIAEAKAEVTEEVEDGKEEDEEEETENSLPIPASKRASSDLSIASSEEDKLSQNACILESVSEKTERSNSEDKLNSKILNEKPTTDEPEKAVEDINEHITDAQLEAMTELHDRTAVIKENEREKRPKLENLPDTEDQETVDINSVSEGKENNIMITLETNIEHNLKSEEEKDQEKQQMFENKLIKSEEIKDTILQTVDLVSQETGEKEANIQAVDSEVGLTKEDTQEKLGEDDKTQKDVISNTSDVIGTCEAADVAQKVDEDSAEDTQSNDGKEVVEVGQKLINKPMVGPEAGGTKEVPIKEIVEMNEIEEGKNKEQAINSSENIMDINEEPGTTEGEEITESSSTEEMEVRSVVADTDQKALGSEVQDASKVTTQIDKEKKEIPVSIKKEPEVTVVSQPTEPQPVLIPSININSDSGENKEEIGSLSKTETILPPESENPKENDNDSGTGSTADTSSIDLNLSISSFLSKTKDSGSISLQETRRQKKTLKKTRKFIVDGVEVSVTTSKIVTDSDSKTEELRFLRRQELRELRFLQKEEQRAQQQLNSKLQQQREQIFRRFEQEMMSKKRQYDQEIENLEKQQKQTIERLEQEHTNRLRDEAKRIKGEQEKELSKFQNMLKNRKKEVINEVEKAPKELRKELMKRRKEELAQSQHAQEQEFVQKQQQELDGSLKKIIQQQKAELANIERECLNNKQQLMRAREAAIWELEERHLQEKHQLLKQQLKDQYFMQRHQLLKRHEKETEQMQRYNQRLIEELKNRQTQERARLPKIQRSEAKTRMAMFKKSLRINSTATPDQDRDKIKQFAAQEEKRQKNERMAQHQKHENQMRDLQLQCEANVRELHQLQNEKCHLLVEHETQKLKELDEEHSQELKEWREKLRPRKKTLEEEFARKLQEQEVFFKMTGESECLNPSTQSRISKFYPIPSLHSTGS
row,Compound,Kd
1,CNC(=O)CN1CCC(Oc2cc3c(Nc4cccc(Cl)c4F)ncnc3cc2OC)CC1 [SAPITINIB],> 30 µM (inactive)
2,CN1CCC(CNc2ccc3ncc(-c4cccc(OC(F)(F)F)c4)n3n2)CC1 [SGI-1776],3.59 µM (active)

# Molecular target: Tyrosine-protein kinase Fer (Homo sapiens, UniProt P16591)
row,Compound,Kd
1,CNC(=O)CN1CCC(Oc2cc3c(Nc4cccc(Cl)c4F)ncnc3cc2OC)CC1 [SAPITINIB],> 30 µM (inactive)
2,CN1CCC(CNc2ccc3ncc(-c4cccc(OC(F)(F)F)c4)n3n2)CC1 [SGI-1776],> 30 µM (inactive)

# Molecular target: T3, Serine/threonine-protein kinase TAO1 (Homo sapiens, UniProt Q7L7X3)
# T3 sequence (Q7L7X3 whole entry): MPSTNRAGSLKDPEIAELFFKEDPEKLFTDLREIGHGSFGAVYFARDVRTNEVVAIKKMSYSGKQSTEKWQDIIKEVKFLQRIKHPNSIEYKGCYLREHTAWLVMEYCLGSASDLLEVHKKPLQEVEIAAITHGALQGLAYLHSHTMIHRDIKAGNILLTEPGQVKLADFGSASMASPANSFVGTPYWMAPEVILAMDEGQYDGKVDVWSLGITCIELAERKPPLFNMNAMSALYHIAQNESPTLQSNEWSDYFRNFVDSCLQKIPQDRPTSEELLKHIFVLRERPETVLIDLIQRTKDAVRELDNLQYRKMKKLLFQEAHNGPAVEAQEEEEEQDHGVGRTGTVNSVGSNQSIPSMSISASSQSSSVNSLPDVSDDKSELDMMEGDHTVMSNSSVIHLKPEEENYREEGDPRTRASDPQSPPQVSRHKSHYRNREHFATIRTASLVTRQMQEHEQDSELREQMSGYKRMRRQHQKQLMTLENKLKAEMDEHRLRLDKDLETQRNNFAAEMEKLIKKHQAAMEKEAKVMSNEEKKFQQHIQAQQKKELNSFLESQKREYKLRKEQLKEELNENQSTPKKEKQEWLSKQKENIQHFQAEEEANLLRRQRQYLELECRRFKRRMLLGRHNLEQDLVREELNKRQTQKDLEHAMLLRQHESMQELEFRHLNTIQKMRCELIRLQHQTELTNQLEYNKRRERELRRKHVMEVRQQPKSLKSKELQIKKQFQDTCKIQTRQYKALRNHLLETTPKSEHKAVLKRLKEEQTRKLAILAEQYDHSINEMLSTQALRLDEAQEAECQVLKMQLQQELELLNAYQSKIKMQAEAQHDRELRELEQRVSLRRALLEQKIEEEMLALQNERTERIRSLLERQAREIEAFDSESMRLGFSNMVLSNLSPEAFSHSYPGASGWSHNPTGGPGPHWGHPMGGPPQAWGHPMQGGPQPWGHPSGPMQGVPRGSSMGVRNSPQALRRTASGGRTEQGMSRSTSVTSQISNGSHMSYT
row,Compound,Kd
1,CNC(=O)CN1CCC(Oc2cc3c(Nc4cccc(Cl)c4F)ncnc3cc2OC)CC1 [SAPITINIB],> 30 µM (inactive)
2,CN1CCC(CNc2ccc3ncc(-c4cccc(OC(F)(F)F)c4)n3n2)CC1 [SGI-1776],> 30 µM (inactive)

# Molecular target: ATP-dependent RNA helicase DDX3X (Homo sapiens, UniProt O00571)
# Sequence (O00571 whole entry): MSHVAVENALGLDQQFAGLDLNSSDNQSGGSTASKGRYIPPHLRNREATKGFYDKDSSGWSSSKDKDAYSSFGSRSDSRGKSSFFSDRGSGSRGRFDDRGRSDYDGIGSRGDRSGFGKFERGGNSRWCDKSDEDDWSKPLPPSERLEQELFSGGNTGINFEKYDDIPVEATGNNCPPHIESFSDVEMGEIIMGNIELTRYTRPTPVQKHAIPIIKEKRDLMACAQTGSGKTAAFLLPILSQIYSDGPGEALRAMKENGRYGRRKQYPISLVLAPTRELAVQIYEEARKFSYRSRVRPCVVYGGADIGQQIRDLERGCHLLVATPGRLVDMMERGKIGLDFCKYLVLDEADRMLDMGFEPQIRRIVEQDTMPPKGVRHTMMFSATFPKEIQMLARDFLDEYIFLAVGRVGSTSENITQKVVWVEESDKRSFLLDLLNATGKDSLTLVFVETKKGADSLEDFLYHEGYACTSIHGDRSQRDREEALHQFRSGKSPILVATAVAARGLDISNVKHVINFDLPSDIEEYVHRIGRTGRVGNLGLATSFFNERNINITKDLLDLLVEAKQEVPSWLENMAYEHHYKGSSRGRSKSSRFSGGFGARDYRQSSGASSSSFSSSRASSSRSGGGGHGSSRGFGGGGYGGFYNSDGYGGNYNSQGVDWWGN
row,Compound,Kd
1,CNC(=O)CN1CCC(Oc2cc3c(Nc4cccc(Cl)c4F)ncnc3cc2OC)CC1 [SAPITINIB],> 30 µM (inactive)
2,CN1CCC(CNc2ccc3ncc(-c4cccc(OC(F)(F)F)c4)n3n2)CC1 [SGI-1776],> 30 µM (inactive)
